Data published in patent US11382920B2, “Therapeutic effects of Guanabenz treatment in vanishing white matter” (Stichting VUmc, priority 2017, dated 2022).

Experiments:
2b5^ho mice [1] = experiment: Nestin cell count in corpus callosum after Guanabenz treatment of VWM mice; format: in vivo, mouse; settings: Guanabenz i.p. weekly from 2 to 10 months of age, analysed at 11 months, vs saline, p=0.289, not significant
Method: (§3) Tissue sections of 11 WT and 10 2b5^ho (carrying a homozygous Arg191His mutation in the Eif2b5 gene [7]) animals of 2, 5 or 7 months of age were collected after intracardiac perfusion with 4% paraformaldehyde (PFA). The brains were postfixed in 4% PFA for 1-2 days, after which half of the brain was embedded in paraffin and the other half was incubated overnight in 30% sucrose and snapfrozen in optimum cutting temperature compound (Sakura). […] To test the effect of Guanabenz, 11 female 2b5^ho littermates were injected with saline (n=5) or Guanabenz (10 mg/kg; n=6) i.p. every week from 2 months until 10 months of age. Animals were randomly assigned to the Guanabenz or saline group, and single animals were taken as experimental units. At 11 months of age all mice were sacrificed and the brains were used for analysis. The brains of 3 saline- and 4 Guanabenz-injected animals were perfused as described and used for immunostaining and in situ hybridization. […]
(§4) Mouse tissue was processed for immunostaining as previously described [7]. […] Stainings were analyzed with a LeicaDM6000B microscope (Leica Microsystems). […]
Astrocytes double-positive for nestin and GFAP were counted in the splenium and rostrum of the corpus callosum, on 100× magnification pictures. Total cell number was determined by counting the DAPI-positive nuclei. For each animal, at least 3 slices were stained and counted. […]

2b5^ho mice [2] = experiment: Analysis of Bergmann glia translocation (S100ß/GFAP staining) after Guanabenz treatment; format: in vivo, mouse
Method: Tissue sections of 11 WT and 10 2b5^ho (carrying a homozygous Arg191His mutation in the Eif2b5 gene [7]) animals of 2, 5 or 7 months of age were collected after intracardiac perfusion with 4% paraformaldehyde (PFA). The brains were postfixed in 4% PFA for 1-2 days, after which half of the brain was embedded in paraffin and the other half was incubated overnight in 30% sucrose and snapfrozen in optimum cutting temperature compound (Sakura). […] To test the effect of Guanabenz, 11 female 2b5^ho littermates were injected with saline (n=5) or Guanabenz (10 mg/kg; n=6) i.p. every week from 2 months until 10 months of age. Animals were randomly assigned to the Guanabenz or saline group, and single animals were taken as experimental units. At 11 months of age all mice were sacrificed and the brains were used for analysis. […]
as §4
Bergmann glia pathology was analyzed in S100ß-stained sections. […] All the S100-positive cell bodies inside this band were counted and considered correctly localized. The S100ß-positive cell bodies located outside the band in the molecular layer were counted and considered as translocated Bergmann glia. The amount of translocated cell bodies was expressed as a ratio to the total number of S100ß-positive cell bodies counted.

2b5^ho mice [3] = experiment: In situ hybridization for Plp-expressing cells after Guanabenz treatment; format: in vivo, mouse; settings: Guanabenz i.p. weekly 2-10 months, forebrain (corpus callosum) and cerebellum, vs saline
Method: as §3
In situ hybridization targeting proteolipid protein (Plp) mRNA was performed on PFA-fixed snapfrozen tissue as previously described [7, 25]. […] The number of Plp-positive cells was analyzed in the rostrum and splenium of the corpus callosum, and in the white matter of the cerebellum. For each area 3 different pictures were taken with a 100× objective lens and cells were counted in a 100×200 μm square.

2b5^ho mice [4] = experiment: Western blot for myelin proteins MBP and MOG after Guanabenz treatment; format: in vivo, mouse; settings: Guanabenz vs saline, n=2
Method: To test the effect of Guanabenz, 11 female 2b5^ho littermates were injected with saline (n=5) or Guanabenz (10 mg/kg; n=6) i.p. every week from 2 months until 10 months of age. Animals were randomly assigned to the Guanabenz or saline group, and single animals were taken as experimental units. At 11 months of age all mice were sacrificed and the brains were used for analysis. The brains of 3 saline- and 4 Guanabenz-injected animals were perfused as described and used for immunostaining and in situ hybridization. The brains of 2 saline- and 2 Guanabenz-injected animals were snapfrozen in liquid nitrogen and used for western blot analysis. No animals were excluded from any analysis.
Half of the forebrain and the whole cerebellum of 2 saline- and 2 Guanabenz-treated animals were separately used for western blot analysis. Forebrains were lysed in lysis buffer (50 mM Hepes, 150 mM NaCl, 1 mM EDTA, 2.5 mM ethylene glycol-bis(β-aminoethyl-ether)-N,N,N′,N′-tetraacetic acid, 0.1% Triton-X100, 10% glycerol, 1 mM dithiothreitol) supplemented with protease inhibitor cocktail (ThermoFisher Scientific) using a dounce tissue grinder (Sigma-Aldrich). […] Supernatants were collected and protein concentrations were measured with a Bradford assay. […] Secondary antibodies were raised against mouse or rabbit and conjugated with horseradish peroxidase. Blots were developed with SuperSignal™ West Femto Maximum Sensitivity Substrate (ThermoFisher Scientific) and measured in an Odyssey® Fc Imaging System (LI-COR Inc). Intensity of bands was quantified with ImageJ software and corrected for total amount of protein.

ATF4 expression = experiment: Stress-sensitive ATF4 luciferase reporter transfection assay (pNL1.1-mATF4) in U373 cells; format: cell-based, human; settings: 15 μM compound added with 3 nM thapsigargin for 16 hours
Method: FIG. 9. […] ATF4 expression was assessed with a luciferase reporter construct under regulation of the murine Atf4 promoter and 5′ non-coding region. Cells were transfected as described. The ISR was induced by administration of 3 nM thapsigargin (TG) to the cell culture medium. […] Guanfacin (Gf), an a2 adrenergic receptor agonist without reported GADD34 modulating activity, was included in parallel as negative control. […] Statistical analyses were performed for individual compounds with a paired t-test (*, p<0.05, **, p<0.01).
The a2 adrenergic receptor agonist Guanabenz (Gb) has been reported to also target GADD34 and thereby impact on a negative feedback loop of the ISR [16]. GADD34 promotes dephosphorylation of eIF2P. Gb is thought to inhibit GADD34, it is thereby though to increase and prolong eIF2a phosphorylation and consequently increases production of ATF4 and its regulated transcriptome. We tested the effect of Gb on ATF4 production in U373 cell lines using a stress-sensitive transfection assay. Transfections were performed with the pNL1.1-mATF4 reporter construct, in which expression of the reporter gene is controlled by ISR-responsive sequences. Expression from the reporter construct was measured 2 days after transfection with a commercially available chemiluminescent assay and can be directly interpreted as a measure for ATF4 expression.
ATF4 expression was investigated in the absence or presence of ISR activation. […] Gb was added together with thapsigargin to the culture medium to test the effect of Gb on ATF4 expression. […] The eIF2B-enhancing compound ISRIB was included as positive control for ATF4-regulation.

eIF2a phosphorylation = eIF2a phosphorylation in brain tissue (Western blot) after one Gb injection; format: in vivo, mouse; settings: wt and 2b5ho mice, one dose 10 mg/kg i.p., vs saline
Method: (§1) FIG. 10. […] Statistical analysis was performed with two-way ANOVA (*, p<0.05, **, p<0.01, ***, p<0.001).
(§2) As (unpublished) part of this study, we investigated the effect of Gb on the expression of ATF4 and its regulated transcriptome in mice. […] In short, we injected one dose of 10 mg/kg Gb intraperitoneally into four wildtype (wt) and four 2b5ho mice. Saline-injected wt and 2b5ho mice were used as negative controls for measuring Gb effects on ISR markers. […] Organs were removed, snap frozen in liquid nitrogen and stored at −80° C. Tissue samples for RNA and protein analyses were prepared as described. In postmortem brain tissue we measured levels of phosphorylated eIF2a with Western blot and levels of mRNAs encoding ATF4 and ATF4-regulated targets CHOP and TRIB3 with qPCR.

[5] = test system: mRNAs encoding ATF4 and ATF4-regulated targets CHOP and TRIB3; experiment: ISR marker mRNA levels in brain tissue (qPCR) after one Gb injection; format: in vivo, mouse; settings: one dose 10 mg/kg i.p., vs saline
Method: as §1, §2

[6] = in vivo; cited from earlier work

Structure (SMILES)	average decrease of number of nestin-positive cells in the corpus callosum (2b5^ho mice [1])	GFAP expression and Bergmann glia morphology (2b5^ho mice [2]; Guanabenz i.p. weekly 2-10 months, cerebellum)	decrease of number of translocated Bergmann glia cell bodies (2b5^ho mice [2]; Guanabenz i.p. weekly from 2 to 10 months of age, analysed at 11 months, vs saline, p=0.032, reached numbers of untreated WT)	number of Plp-expressing cells (2b5^ho mice [3])	amount of MBP protein, cerebellum (2b5^ho mice [4])	amount of MOG protein, cerebellum (2b5^ho mice [4])	amount of MOG protein, forebrain (2b5^ho mice [4])	ATF4 expression under stress (ATF4 expression)	levels of eIF2a phosphorylation in brain tissue, 4 hours after injection (eIF2a phosphorylation)	levels of eIF2a phosphorylation in brain tissue, 24 hours after injection (eIF2a phosphorylation)	Atf4 mRNA levels in brain tissue, 2b5ho mice ([5]; 4 and 24 hours)	Ddit3 mRNA expression in brain tissue, 2b5ho mice ([5]; 4 and 24 hours)	Trib3 mRNA expression in brain tissue, 2b5ho mice ([5]; 4 and 24 hours, not significant at 4 hours)	Atf4 mRNA expression level in brain tissue, wt mice ([5]; n=2)	half-life in blood/tissue [6]
NC(N)=N/N=C/c1c(Cl)cccc1Cl [Guanabenz, guanabenz]	27%	decreased GFAP expression and a normalization of Bergmann glia morphology	30%	slightly increased in the forebrain and cerebellum, though not significantly	increased	increased	increased	increased	lower than in saline-injected animals	normalized	transient decrease	reduced at both time points	reduced at both time points	unaffected	approximately 6 hours
N=C(N)NC(=O)Cc1c(Cl)cccc1Cl [Guanfacine, guanfacine]								small, variable and not statistically significant							
O=C(COc1ccc(Cl)cc1)NC1CCC(NC(=O)COc2ccc(Cl)cc2)CC1 (centres unmarked) [ISRIB]								reduced							
